Among the data in patent US12643887B2, “Heterocyclic derivatives with cardiomyocyte proliferation activity for treatment of heart diseases” (Tongji University, priority 2019, dated 2026) are IC50 values, retold here.

As usually defined, the IC50 is the concentration that inhibits the measured activity by half.

Common to all, as to assay type: biochemical
The target of experiment [1] is T1, human HIPK1 (Homo sapiens, UniProt Q86Z02).
T1 construct: Recombinant human HIPK1 (156-555); GST (N); purchased SignalChem H03-11G; host or cells: Sf9 insect cells
In words: HIPK1 enzyme assay (ADP-Glo). The procedure, abridged: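 Recombinant GST-tagged HIPK1 (156-555, Sf9), 4 nM, preincubated 30 min at 25° C with compound in Tris pH 7.5/MgCl2/BSA/DTT, then reacted 90 min with 0.05 mg/ml MBP and 5 μM ATP. ADP formed read by ADP-Glo luminescence; IC50 from four-parameter logistic fit of % inhibition versus Max/Min controls.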
Background: In ADP-Glo the light output rises with the ADP produced.

The target in experiment [2] is T2, human HIPK2 (Homo sapiens, UniProt Q9H2X6).
T2 construct: Recombinant human HIPK2 (1-640); GST (N); purchased SignalChem H04-11BG; host or cells: Sf9 insect cells
Nature of the experiment: HIPK2 enzyme assay (ADP-Glo). Put shortly:
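GST-tagged HIPK2 (1-640) from Sf9, 1 nM, preincubated 30 min at 25° C with inhibitor in 40 mM Tris pH 7.5, 20 mM MgCl2. Reaction ran 90 min at 25° C with GST-MBP substrate at 0.05 mg/ml and 5 μM ATP. ADP-Glo luminescence; IC50 by four-parameter logistic fit.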

In experiment [3] the target is T3, human CK2a2 (CSNK2a2) (Homo sapiens, UniProt P19784).
T3 construct: Recombinant human CK2a2 (CSNK2a2) (full length); GST (N); purchased SignalChem C71-10G; host or cells: Sf9 insect cells
Nature of the experiment: CK2a2 (CSNK2a2) enzyme assay (ADP-Glo). Here is the method:
8. CK2a2 (CSNK2a2) Enzyme Assay
The ability of compounds to inhibit human CK2a2 (CSNK2a2) kinase activities was determined using a commercially available ADP-Glo™ Kinase Assay kit (Promega, Cat #V9102) according to the manufacturer's protocol.
Recombinant human CK2a2 (CSNK2a2) (full length) (expressed in Sf9 insect cells with an N-terminal GST tag) was purchased from SignalChem (Cat #C71-10G). CK2 substrate (sequence: […]) was purchased from SignalChem (Cat #C08-58). This assay, run in a 384-well plate format, is a generic method for measuring kinase activities using an ADP-Glo Kinase Assay Kit. The basic assay procedure involves two steps: (1) Enzymatic step: inhibitors are incubated with the kinase and then ATP (included in the ADP-Glo Kinase Assay Kit) and the MBP protein are added to start the enzymatic reaction; (2) Detection step: after the kinase reaction, first ADP-Glo™ Reagent is added to terminate the kinase reaction and deplete the remaining ATP. Second, the Kinase Detection Reagent is added to simultaneously convert ADP to ATP and allow the newly synthesized ATP to be measured using a luciferase/luciferin reaction. The light generated is measured using a luminometer.
Briefly, CK2a2 (CSNK2a2) (7 nM) in the enzymatic buffer solutions (40 mM Tris, pH 7.5, 20 mM MgCl2, 0.1 mg/ml BSA, 50 μM DTT) were mixed with various concentrations of inhibitors (dissolved in 100% DMSO). These solutions were incubated for 30 minutes at 25° C., and subsequently a mixture of substrate peptide and ATP was added with the final peptide and ATP concentrations at 0.04 mg/ml and 15 μM, respectively. The final reaction mixture of enzyme-substrate-ATP-compound was incubated for 90 minutes at 25° C.
Afterwards ADP-Glo™ Reagent was added and the mixture was incubated at 25° C. for 60 minutes. Then Kinase Detection Reagent was added, and the final mixture was incubated at 25° C. for 60 minutes. The luminescence signal of the final solution was measured on an Envision instrument (PerkinElmer). The percent (%) inhibition at each concentration of a compound is calculated relative to the luminescence signal in the Max and Min control wells contained within each assay plate. […] The concentrations and percent inhibition values for a test compound are plotted and the concentration of the compound required to achieve 50% inhibition (IC50) is determined with a four-parameter logistic dose response equation.

Where [4] appears, read: ADP-Glo, ATP 5 μM, read-out: HIPK1 IC50.
Setting [5] is: ADP-Glo, ATP 5 μM, read-out: HIPK2 IC50.
Setting [6] is: ADP-Glo, ATP 15 μM, read-out: CK2 alpha 2 IC50.

Like-named read-outs stand apart in the source and are kept apart here.

T3 sequence (P19784 whole entry): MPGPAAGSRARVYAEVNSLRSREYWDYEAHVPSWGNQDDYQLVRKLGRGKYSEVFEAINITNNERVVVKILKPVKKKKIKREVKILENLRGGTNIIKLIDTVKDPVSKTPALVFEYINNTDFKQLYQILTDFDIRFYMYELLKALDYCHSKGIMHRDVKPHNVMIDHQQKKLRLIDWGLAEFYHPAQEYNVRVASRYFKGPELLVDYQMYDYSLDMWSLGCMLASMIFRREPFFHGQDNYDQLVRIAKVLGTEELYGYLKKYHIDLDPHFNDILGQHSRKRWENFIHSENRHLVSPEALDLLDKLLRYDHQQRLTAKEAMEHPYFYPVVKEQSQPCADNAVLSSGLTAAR
T2 sequence (Q9H2X6 1-640): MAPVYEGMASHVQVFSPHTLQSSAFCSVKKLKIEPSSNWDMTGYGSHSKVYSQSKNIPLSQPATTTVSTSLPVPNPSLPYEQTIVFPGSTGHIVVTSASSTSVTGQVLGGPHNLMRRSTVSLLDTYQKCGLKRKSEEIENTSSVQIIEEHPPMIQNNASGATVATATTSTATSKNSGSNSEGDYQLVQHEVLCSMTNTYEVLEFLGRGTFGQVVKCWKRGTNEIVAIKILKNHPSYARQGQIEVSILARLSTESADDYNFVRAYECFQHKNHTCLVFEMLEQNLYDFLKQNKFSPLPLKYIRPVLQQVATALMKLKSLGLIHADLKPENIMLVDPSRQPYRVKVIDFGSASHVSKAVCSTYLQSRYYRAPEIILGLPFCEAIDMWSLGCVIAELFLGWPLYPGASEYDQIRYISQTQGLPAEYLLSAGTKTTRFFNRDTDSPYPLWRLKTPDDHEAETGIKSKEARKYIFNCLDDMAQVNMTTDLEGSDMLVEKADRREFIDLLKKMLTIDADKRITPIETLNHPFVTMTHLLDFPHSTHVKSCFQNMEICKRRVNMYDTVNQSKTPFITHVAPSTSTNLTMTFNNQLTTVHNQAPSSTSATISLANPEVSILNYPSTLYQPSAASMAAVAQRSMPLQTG
T1 sequence (Q86Z02 156-555): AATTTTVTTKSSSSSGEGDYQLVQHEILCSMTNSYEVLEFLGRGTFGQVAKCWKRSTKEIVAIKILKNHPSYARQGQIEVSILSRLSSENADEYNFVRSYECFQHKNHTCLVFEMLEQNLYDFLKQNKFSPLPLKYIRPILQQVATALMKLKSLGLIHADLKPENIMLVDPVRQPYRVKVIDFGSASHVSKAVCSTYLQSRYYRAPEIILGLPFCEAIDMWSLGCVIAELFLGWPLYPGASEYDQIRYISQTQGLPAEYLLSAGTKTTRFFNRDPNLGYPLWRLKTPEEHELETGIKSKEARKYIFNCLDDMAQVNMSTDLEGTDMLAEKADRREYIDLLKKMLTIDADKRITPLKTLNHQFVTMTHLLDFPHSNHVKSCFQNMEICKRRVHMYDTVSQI

For the molecule `CN(C1=N/C(=C\c2ccc3ncccc3c2)C(=O)N1)c1ccc2ncsc2c1` [Example 85, (Z)-2-(benzo[d]thiazol-6-yl(methyl)amino)-5-(quinolin-6-ylmethylene)-3,5-dihydro-4H-imidazol-4-one], the half-inhibitory concentration (IC50) in experiment [1] (setting [4]) and in experiment [2] (setting [5]) was above 10000 nM in each case.
Turning to `O=C1NC(Nc2ccc3ncsc3c2)=N/C1=C\c1ccc2nccnc2c1` [Example 94, (Z)-2-(benzo[d]thiazol-6-ylamino)-5-(quinoxalin-6-ylmethylene)-3,5-dihydro-4H-imidazol-4-one], the IC50 in experiment [1] (setting [4]) and in experiment [2] (setting [5]) was above 10000 nM throughout.
Consider `O=C1NC(=S)N/C1=C\c1ccc2sccc2c1` [Example 96, (Z)-5-(benzo[b]thiophen-5-ylmethylene)-2-thioxoimidazolidin-4-one], for which the half-maximal inhibitory concentration (IC50) in experiment [1] (setting [4]) and in experiment [2] (setting [5]) was above 10000 nM each time.
As for `O=C1NC(N(Cc2ccccc2)c2ccc3ncsc3c2)=N/C1=C\c1ccc2ncsc2c1` [Example 99, (Z)-2-(benzo[d]thiazol-6-yl(benzyl)amino)-5-(benzo[d]thiazol-6-ylmethylene)-3,5-dihydro-4H-imidazol-4-one], the IC50 is above 10000 nM in experiment [1] (setting [4]) and 100 to 1000 nM in experiment [2] (setting [5]).
Take `CCN(C1=N/C(=C\c2ccc3c(c2)OCO3)C(=O)N1)c1ccccc1` [Example 4, (Z)-5-(benzo[d][1,3]dioxol-5-ylmethylene)-2-(ethyl(phenyl)amino)-3,5-dihydro-4H-imidazol-4-one]: the values for the 50% inhibitory concentration (IC50) in experiment [1] (setting [4]), in experiment [3] (setting [6]) and in experiment [2] (setting [5]) were above 10000 nM, 100 to 1000 nM and above 10000 nM, respectively.
With `Nc1ccc(NC2=N/C(=C\c3ccc4ncsc4c3)C(=O)N2)cc1` [Example 98, (Z)-2-((4-aminophenyl)amino)-5-(benzo[d]thiazol-6-ylmethylene)-3,5-dihydro-4H-imidazol-4-one], the concentration for half-maximal inhibition (IC50) was 100 to 1000 nM in experiment [1] (setting [4]), below 100 nM in experiment [3] (setting [6]) and 100 to 1000 nM in experiment [2] (setting [5]).
As to `Cn1cnc2ccc(NC3=N/C(=C\c4ccc5ncsc5c4)C(=O)N3)cc21` [Example 93, (Z)-5-(benzo[d]thiazol-6-ylmethylene)-2-((1-methyl-1H-benzo[d]imidazol-6-yl)amino)-3,5-dihydro-4H-imidazol-4-one], the concentration for half-maximal inhibition (IC50) in experiment [1] (setting [4]) and in experiment [2] (setting [5]) was 100 to 1000 nM each time.
Regarding `O=C1NC(Nc2ccc3nc[nH]c3c2)=N/C1=C\c1ccc2ncsc2c1` [Example 97, (Z)-2-((1H-benzo[d]imidazol-6-yl)amino)-5-(benzo[d]thiazol-6-ylmethylene)-3,5-dihydro-4H-imidazol-4-one], the IC50 in experiment [1] (setting [4]) is 100 to 1000 nM; in experiment [2] (setting [5]) it was below 100 nM.
Consider `CC(=O)N(C1=N/C(=C\c2ccc3ncsc3c2)C(=O)N1)c1ccc2ncsc2c1` [Example 91, (Z)—N-(benzo[d]thiazol-6-yl)-N-(4-(benzo[d]thiazol-6-ylmethylene)-5-oxo-4,5-dihydro-1H-imidazol-2-yl)acetamide], for which the values for the half-inhibitory concentration (IC50) in experiment [1] (setting [4]) and in experiment [2] (setting [5]) were 100 to 1000 nM and below 100 nM, respectively.
Taken in the same sequence, the figures for `CC(C)Nc1nc2ccc(NC3=N/C(=C\c4ccc5ncsc5c4)C(=O)N3)cc2s1` [Example 100, (Z)-5-(benzo[d]thiazol-6-ylmethylene)-2-((2-(isopropylamino)benzo[d]thiazol-6-yl)amino)-3,5-dihydro-4H-imidazol-4-one] were above 10000 nM and 100 to 1000 nM.
Consider `CN1C(=O)/C(=C/c2ccc3ncsc3c2)N=C1Nc1ccc2ncsc2c1` [Example 88, (Z)-2-(benzo[d]thiazol-6-ylamino)-5-(benzo[d]thiazol-6-ylmethylene)-3-methyl-3,5-dihydro-4H-imidazol-4-one], for which the IC50 in experiment [1] (setting [4]) and in experiment [2] (setting [5]) was above 10000 nM in each case.
`O=C1NC(Nc2ccc3ncsc3c2)=N/C1=C\c1cncs1` [Example 92, (Z)-2-(benzo[d]thiazol-6-ylamino)-5-(thiazol-5-ylmethylene)-3,5-dihydro-4H-imidazol-4-one]: the concentration for half-maximal inhibition (IC50) in experiment [1] (setting [4]) and in experiment [2] (setting [5]) was 100 to 1000 nM each time.
For the molecule `COCCN(C1=N/C(=C\c2ccc3ncsc3c2)C(=O)N1)c1ccc2ncsc2c1` [Example 89, (Z)-2-(benzo[d]thiazol-6-yl(2-methoxyethyl)amino)-5-(benzo[d]thiazol-6-ylmethylene)-3,5-dihydro-4H-imidazol-4-one], the IC50 in experiment [1] (setting [4]) lay within 1000 to 10000 nM; in experiment [2] (setting [5]) it was 100 to 1000 nM.
Regarding `Cc1nc2ccc(NC3=N/C(=C\c4ccc5ncsc5c4)C(=O)N3)cc2s1` [Example 90, (Z)-5-(benzo[d]thiazol-6-ylmethylene)-2-((2-methylbenzo[d]thiazol-6-yl)amino)-3,5-dihydro-4H-imidazol-4-one], the values for the IC50 in experiment [1] (setting [4]), in experiment [3] (setting [6]) and in experiment [2] (setting [5]) were above 10000 nM, below 100 nM and below 100 nM, respectively.
Regarding `CN(C1=N/C(=C\c2ccc3[nH]ccc3c2)C(=O)N1)c1ccc2ncsc2c1` [Example 87, (Z)-5-((1H-indol-5-yl)methylene)-2-(benzo[d]thiazol-6-yl(methyl)amino)-3,5-dihydro-4H-imidazol-4-one], the 50% inhibitory concentration (IC50) in experiment [1] (setting [4]) and in experiment [2] (setting [5]) was above 10000 nM throughout.
As for `CC(=O)N(C1=N/C(=C\c2ccc3c(c2)OCO3)C(=O)N1)c1ccccc1` [Example 5, (Z)—N-(4-(benzo[d][1,3]dioxol-5-ylmethylene)-5-oxo-4,5-dihydro-1H-imidazol-2-yl)-N-phenylacetamide], the concentration for half-maximal inhibition (IC50) was 100 to 1000 nM in experiment [1], below 100 nM in experiment [3] and 1000 to 10000 nM in experiment [2].
Take `O=C1NC(Nc2ccc3ncsc3c2)=N/C1=C\c1ccc2cn[nH]c2c1` [Example 95, (Z)-5-((1H-indazol-6-yl)methylene)-2-(benzo[d]thiazol-6-ylamino)-3,5-dihydro-4H-imidazol-4-one]: the IC50 in experiment [1] (setting [4]) and in experiment [2] (setting [5]) was above 10000 nM each time.
As to `O=C1NC(Nc2ccc3sccc3c2)=N/C1=C\c1ccc2ncsc2c1` [Example 101, (Z)-2-(benzo[b]thiophen-5-ylamino)-5-(benzo[d]thiazol-6-ylmethylene)-3,5-dihydro-4H-imidazol-4-one], the half-inhibitory concentration (IC50) in experiment [1] (setting [4]) and in experiment [2] (setting [5]) was above 10000 nM throughout.
On to `CN(C1=N/C(=C\c2ccc3ncsc3c2)C(=O)N1)c1ccc2c(c1)ncn2C` [Example 86, (Z)-5-(benzo[d]thiazol-6-ylmethylene)-2-(methyl(1-methyl-1H-benzo[d]imidazol-5-yl)amino)-3,5-dihydro-4H-imidazol-4-one], for which the 50% inhibitory concentration (IC50) in experiment [1] (setting [4]) and in experiment [2] (setting [5]) was 1000 to 10000 nM in each case.
